# In patent US9708308B2, “Factor IXa inhibitors” (Merck Sharp & Dohme Corp., priority 2012, dated 2017):
# Molecular target: Factor IXa (Homo sapiens, UniProt P00740)
# Experiment: Determination of inhibitory activity against Factor IXa (cleavage of fluorescent peptide substrate)
# Type: biochemical
# Details: cleavage of fluorescent peptide CH3SO2-D-CHG-Gly-Arg-AFC, release of AFC; read-out: FIXa IC50
# Procedure, shortened: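 Factor IXa activity followed via cleavage of CH3SO2-D-CHG-Gly-Arg-AFC, releasing AFC. Fluorescence read at excitation 405 nm, emission 510 nm.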
# Chain of Factor IXa (P00740 227-461 limits assumed): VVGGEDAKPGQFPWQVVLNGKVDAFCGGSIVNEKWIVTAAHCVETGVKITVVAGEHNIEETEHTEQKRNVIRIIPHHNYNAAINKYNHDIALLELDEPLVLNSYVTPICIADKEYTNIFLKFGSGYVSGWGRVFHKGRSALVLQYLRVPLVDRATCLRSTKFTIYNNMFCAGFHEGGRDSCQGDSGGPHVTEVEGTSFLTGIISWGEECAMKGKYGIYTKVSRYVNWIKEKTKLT
# Chain of Factor IXa (P00740 47-191 partner limits assumed): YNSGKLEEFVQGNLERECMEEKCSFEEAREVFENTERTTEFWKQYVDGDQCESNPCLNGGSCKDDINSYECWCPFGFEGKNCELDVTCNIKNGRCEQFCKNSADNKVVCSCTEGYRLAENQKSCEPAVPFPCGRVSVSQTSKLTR
row,SMILES,IC50
1,"C[C@]1([C@@H](O)C(=O)Nc2ccc3c(N)noc3c2)OCCN(c2ccn(-c3cncc(C(F)(F)F)c3)n2)C1=O [Example 87, (R)—N-(3-aminobenzo[d]isoxazol-6-yl)-2-hydroxy-2-((R)-2-methyl-3-oxo-4-(1-(5-(trifluoromethyl)pyridin-3-yl)-1H-pyrazol-3-yl)morpholin-2-yl)acetamide]",228 nM
2,"C[C@]1([C@@H](O)C(=O)Nc2ccc3c(N)noc3c2)OCCN(c2ccn(-c3cncc(C#N)c3)n2)C1=O [Example 88, (R)—N-(3-aminobenzo[d]isoxazol-6-yl)-2-((R)-4-(1-(5-cyanopyridin-3-yl)-1H-pyrazol-3-yl)-2-methyl-3-oxomorpholin-2-yl)-2-hydroxyacetamide]",950 nM
3,"C[C@]1([C@@H](O)C(=O)Nc2ccc3c(N)noc3c2)OCCN(c2ccn(-c3ccncc3)n2)C1=O [Example 89, (R)—N-(3-aminobenzo[d]isoxazol-6-yl)-2-hydroxy-2-((R)-2-methyl-3-oxo-4-(1-(pyridin-4-yl)-1H-pyrazol-3-yl)morpholin-2-yl)acetamide]",1060 nM
4,"C[C@]1([C@@H](O)C(=O)Nc2ccc3c(N)noc3c2)OCCN(c2ccn(-c3ccncc3F)n2)C1=O [Example 90, (R)—N-(3-aminobenzo[d]isoxazol-6-yl)-2-((R)-4-(1-(3-fluoropyridin-4-yl)-1H-pyrazol-3-yl)-2-methyl-3-oxomorpholin-2-yl)-2-hydroxyacetamide]",23.5 nM
5,"COC(=O)c1cc(-n2ccc(N3CCO[C@](C)([C@@H](O)C(=O)Nc4ccc5c(N)noc5c4)C3=O)n2)ccn1 [Example 91, methyl 4-(3-((R)-2-((R)-2-((3-aminobenzo[d]isoxazol-6-yl)amino)-1-hydroxy-2-oxoethyl)-2-methyl-3-oxomorpholino)-1H-pyrazol-1-yl)picolinate]",690 nM
6,"COc1cc(-n2ccc(N3CCO[C@](C)([C@@H](O)C(=O)Nc4ccc5c(N)noc5c4)C3=O)n2)ccn1 [Example 92, (R)—N-(3-aminobenzo[d]isoxazol-6-yl)-2-hydroxy-2-((R)-4-(1-(2-methoxypyridin-4-yl)-1H-pyrazol-3-yl)-2-methyl-3-oxomorpholin-2-yl)acetamide]",106 nM
7,"C[C@]1([C@@H](O)C(=O)Nc2ccc3c(N)noc3c2)OCCN(c2ccn(-c3ccnc(C(F)(F)F)c3)n2)C1=O [Example 94, (R)—N-(3-aminobenzo[d]isoxazol-6-yl)-2-hydroxy-2-((R)-2-methyl-3-oxo-4-(1-(2-(trifluoromethyl)pyridin-4-yl)-1H-pyrazol-3-yl)morpholin-2-yl)acetamide]",12.9 nM
8,"C[C@]1([C@@H](O)C(=O)Nc2ccc3c(N)noc3c2)OCCN(c2ccn(-c3c(F)cncc3F)n2)C1=O [Example 95, (R)—N-(3-aminobenzo[d]isoxazol-6-yl)-2-((R)-4-(1-(3,5-difluoropyridin-4-yl)-1H-pyrazol-3-yl)-2-methyl-3-oxomorpholin-2-yl)-2-hydroxyacetamide]",251 nM
9,"Cc1cc(N2CCO[C@](C)([C@@H](O)C(=O)Nc3ccc4c(N)noc4c3)C2=O)nn1-c1ccnc(C(F)(F)F)c1 [Example 96, (R)—N-(3-aminobenzo[d]isoxazol-6-yl)-2-hydroxy-2-((R)-2-methyl-4-(5-methyl-1-(2-(trifluoromethyl)pyridin-4-yl)-1H-pyrazol-3-yl)-3-oxomorpholin-2-yl)acetamide]",49.1 nM
10,"C[C@]1([C@@H](O)C(=O)Nc2ccc3c(N)noc3c2)OCCN(c2ccn(-c3ccnnc3)n2)C1=O [Example 97, (R)—N-(3-aminobenzo[d]isoxazol-6-yl)-2-hydroxy-2-((R)-2-methyl-3-oxo-4-(1-(pyridazin-4-yl)-1H-pyrazol-3-yl)morpholin-2-yl)acetamide]",3.68 nM
11,"COc1cc(-n2ccc(N3CCO[C@](C)([C@@H](O)C(=O)Nc4ccc5c(N)noc5c4)C3=O)n2)cnn1 [Example 98, (R)—N-(3-aminobenzo[d]isoxazol-6-yl)-2-hydroxy-2-((R)-4-(1-(6-methoxypyridazin-4-yl)-1H-pyrazol-3-yl)-2-methyl-3-oxomorpholin-2-yl)acetamide]",3.71 nM
12,"[2H]C([2H])([2H])Oc1cc(-n2ccc(N3CCO[C@](C)([C@@H](O)C(=O)Nc4ccc5c(N)noc5c4)C3=O)n2)cnn1 [Example 99, (2R)—N-(3-amino-1,2-benzoxazol-6-yl)-2-hydroxy-2-[(2R)-2-methyl-3-oxo-4-[1-[6-(trideuteriomethoxy)pyridazin-4-yl]pyrazol-3-yl]morpholin-2-yl]acetamide]",3.7 nM
13,"C[C@]1([C@@H](O)C(=O)Nc2ccc3c(N)noc3c2)OCCN(c2ccn(-c3cnnc(C#N)c3)n2)C1=O [Example 100, (R)—N-(3-aminobenzo[d]isoxazol-6-yl)-2-((R)-4-(1-(6-cyanopyridazin-4-yl)-1H-pyrazol-3-yl)-2-methyl-3-oxomorpholin-2-yl)-2-hydroxyacetamide]",2.17 nM
14,"COc1ncc(-n2ccc(N3CCO[C@](C)([C@@H](O)C(=O)Nc4ccc5c(N)noc5c4)C3=O)n2)cn1 [Example 101, (R)—N-(3-aminobenzo[d]isoxazol-6-yl)-2-hydroxy-2-((R)-4-(1-(2-methoxypyrimidin-5-yl)-1H-pyrazol-3-yl)-2-methyl-3-oxomorpholin-2-yl)acetamide]",635 nM
15,"C[C@]1([C@@H](O)C(=O)Nc2ccc3c(N)noc3c2)OCCN(c2ccn(-c3cnc(C(F)(F)F)nc3)n2)C1=O [Example 102, (R)—N-(3-aminobenzo[d]isoxazol-6-yl)-2-hydroxy-2-((R)-2-methyl-3-oxo-4-(1-(2-(trifluoromethyl)pyrimidin-5-yl)-1H-pyrazol-3-yl)morpholin-2-yl)acetamide]",124 nM
16,"COc1nccc(-n2ccc(N3CCO[C@](C)([C@@H](O)C(=O)Nc4ccc5c(N)noc5c4)C3=O)n2)n1 [Example 103, (R)—N-(3-aminobenzo[d]isoxazol-6-yl)-2-hydroxy-2-((R)-4-(1-(2-methoxypyrimidin-4-yl)-1H-pyrazol-3-yl)-2-methyl-3-oxomorpholin-2-yl)acetamide]",10.8 nM
17,"Cc1cc(N2CCO[C@](C)([C@@H](O)C(=O)Nc3ccc4c(N)noc4c3)C2=O)nn1C1CC1 [Example 104, (R)—N-(3-aminobenzo[d]isoxazol-6-yl)-2-((R)-4-(1-cyclopropyl-5-methyl-1H-pyrazol-3-yl)-2-methyl-3-oxomorpholin-2-yl)-2-hydroxyacetamide]",401 nM
18,"C[C@]1([C@@H](O)C(=O)Nc2ccc3c(N)noc3c2)OCCN(c2nc(-c3ccncc3)co2)C1=O [Example 105, (R)—N-(3-aminobenzo[d]isoxazol-6-yl)-2-hydroxy-2-((R)-2-methyl-3-oxo-4-(4-(pyridin-4-yl)oxazol-2-yl)morpholin-2-yl)acetamide]",97.9 nM
19,"C[C@]1([C@@H](O)C(=O)Nc2ccc3c(N)noc3c2)OCCN(c2cccc(OC3CCOCC3)n2)C1=O [Example 108, (R)—N-(3-aminobenzo[d]isoxazol-6-yl)-2-hydroxy-2-((R)-2-methyl-3-oxo-4-(6-((tetrahydro-2H-pyran-4-yl)oxy)pyridin-2-yl)morpholin-2-yl)acetamide]",370 nM
20,"C[C@]1([C@@H](O)C(=O)Nc2ccc3c(N)noc3c2)OCCN(c2cccc(-c3ccc(OC(F)(F)F)cc3)n2)C1=O [Example 109, (R)—N-(3-aminobenzo[d]isoxazol-6-yl)-2-hydroxy-2-((R)-2-methyl-3-oxo-4-(6-(4-(trifluoromethoxy)phenyl)pyridin-2-yl)morpholin-2-yl)acetamide]",380 nM
